Laboratory results reported in US3966732A, “Nitroimidazolyl pyrimidines” (Schering Aktiengesellschaft, priority 1972, dated 1976).
In brackets after ≈: the same amount, converted by molar mass.

How the values were obtained:
Trichomonas vaginalis = assay: Minimum inhibitory concentration against Trichomonas vaginalis (own test); assay type: cell-based; conditions: comparison with metronidazole
trichomonads [1] = conditions: Grunberg and Titsworth; cited from earlier work
[2] = Grunberg and Titsworth; cited from earlier work
trichomonads [3] = conditions: Lancini et al.; cited from earlier work

Structure (SMILES) | MIC (Trichomonas vaginalis) [µg/mL] | also measured
Cc1cc(-c2ccccc2)nc(-c2ncc([N+](=O)[O-])n2C)n1 [4-Methyl-6-phenyl-2-(5-nitro-1-methyl-2-imidazolyl)pyrimidine] | 0.2 (≈ 0.677 µM) | –
Cc1cc(C)nc(-c2ncc([N+](=O)[O-])n2C)n1 [4,6-Dimethyl-2-(5-nitro-1-methyl-2-imidazolyl)-pyrimidine] | 0.4 (≈ 1.72 µM) | –
Cc1nc(-c2ncc([N+](=O)[O-])n2C)nc2c1CCc1ccccc1-2 [2-(5-Nitro-1-methyl-2-imidazolyl)-4-methyl-5,6-dihydrobenzo[h]quinazoline] | 0.1 (≈ 0.311 µM) | –
O=[N+]([O-])c1ncc[nH]1 [azomycin, 2-nitroimidazole] | – | ED50 value (in words, versus metronidazole) (trichomonads [1]): considerably less favorable; LD50 value (in words, versus metronidazole) [2]: considerably less favorable; effectiveness in vitro compared with metronidazole (trichomonads [3]): no more effective in vitro than metronidazole
Cc1ncc([N+](=O)[O-])n1CCO [Metronidazole, 5-nitro-2-methyl-1-(2-hydroxyethyl)-imidazole] | 1.6 (≈ 9.35 µM) | –
Cn1c([N+](=O)[O-])cnc1-c1nc(-c2cccs2)cc(C(F)(F)F)n1 [4-Trifluoromethyl-2-(5-nitro-1-methyl-2-imidazolyl)-6-(2-thienyl)-pyrimidin] | 0.2 (≈ 0.563 µM) | –
